Among the data in ChEMBL document CHEMBL3352740, “Pyrrolopyrimidine Analogues as MKNK Inhibitors” (ACS Med Chem Lett, 2015) are IC50 values, retold here.

Each structure is given as a SMILES string.

The test deals with MAP kinase-interacting serine/threonine-protein kinase 1 (Homo sapiens, UniProt Q9BUB5). The test can be described thus: Inhibition of human full-length MKNK1 using biotin-Ahx-IKKRKLTRRKSLKG substrate by TR-FRET-based high ATP assay.
MAP kinase-interacting serine/threonine-protein kinase 1, sequence (Q9BUB5 whole entry): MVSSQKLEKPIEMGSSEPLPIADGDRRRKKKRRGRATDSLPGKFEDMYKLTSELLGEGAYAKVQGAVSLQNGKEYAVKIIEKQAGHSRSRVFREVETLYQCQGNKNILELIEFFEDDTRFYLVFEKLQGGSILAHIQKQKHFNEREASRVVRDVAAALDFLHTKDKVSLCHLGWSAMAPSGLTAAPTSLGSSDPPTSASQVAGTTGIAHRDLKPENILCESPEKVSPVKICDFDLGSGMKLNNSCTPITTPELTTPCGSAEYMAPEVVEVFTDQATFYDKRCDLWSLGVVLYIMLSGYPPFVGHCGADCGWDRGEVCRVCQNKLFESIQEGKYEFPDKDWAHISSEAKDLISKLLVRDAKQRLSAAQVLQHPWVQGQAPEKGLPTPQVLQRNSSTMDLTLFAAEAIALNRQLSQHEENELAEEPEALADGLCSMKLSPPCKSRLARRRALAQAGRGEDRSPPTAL
In the case of `COc1cc(Cl)c(Cl)cc1Nc1ncnc2[nH]c3c(c12)CC(C(=O)NC1CC1)CC3` (stereo unspecified), the concentration for half-maximal inhibition (IC50) stood at 6 nM. `CC(C)Oc1cc2[nH]ncc2cc1Nc1ncnc2[nH]c3c(c12)CCCC3`: inhibition was half-maximal at 5 nM (IC50). `CCNC(=O)C1CCc2[nH]c3ncnc(Nc4cc5cn[nH]c5cc4OC)c3c2C1` (stereo unspecified) showed an IC50 of 6 nM. In turn, `COc1cc2[nH]ncc2cc1Nc1ncnc2[nH]c3c(c12)CC(C(=O)NCc1ccccc1)CC3` (stereo unspecified) displayed an IC50 of 1 nM.

On to `O=C1OCCOc2cc(F)ccc2Nc2ncnc3[nH]c4c(c23)CC1CC4` (stereo unspecified), for which the IC50 came out at 3540 nM. In the case of `CC(C)Oc1cc2[nH]ncc2cc1Nc1ncnc2[nH]c3c(c12)CC(C(=O)NCCCS(C)(=O)=O)CC3` (stereo unspecified), the IC50 came to 1 nM.
